According to patent US20250043299A1, “POINT MUTATIONS THAT BOOST AROMATIC AMINO ACID PRODUCTION AND CO2 ASSIMILATION IN PLANTS” (Wisconsin Alumni Research Foundation, priority 2021, published 2025):

Key:
[1] = target: DHS3^G1; test: DHS enzyme assay, recombinant DHS3^G1; format: biochemical, Arabidopsis thaliana
Experimental: (§1) To generate DHS proteins with individual sota mutations via site-directed mutagenesis, these pET28a plasmid templates were diluted by 500-fold, mixed with 0.04 U/μL Phusion DNA polymerase (Thermo Scientific), 0.2 mM deoxynucleoside triphosphates (dNTPs), 1× Phusion reaction buffer (Thermo Scientific), and 0.5 μM forward and reverse mutagenesis primers (Table 10). The PCR reaction was run using the following protocol: 98° C. for 30 s followed by 20 cycles of 10 s at 98° C., 20 s at 70° C., 4.5 min at 72° C. with a final extension at 72° C. for 10 min. The PCR products were purified using a QIAquick Gel Extraction Kit (QIAGEN), treated with FastDigest DpnI (Thermo Scientific) to digest methylated plasmid template DNA for 20 min at 37° C., and transformed into E. coli cells. The mutagenized pET28a plasmids were sequenced to confirm that no errors were introduced during the mutagenesis process.
The DHS enzyme assays were conducted using the colorimetric method that we recently described (9). Briefly, the enzyme solution (7.7 μl) containing 50 mM Hepes (pH 7.4) was preincubated with an effector molecule(s) at room temperature for 15 min. For assays using recombinant protein and enzyme fractions isolated from plant leaves, 0.01 to 0.1 μg and approximately 50 μg of proteins were used, respectively. After adding 0.5 μl of 0.1 M dithiothreitol, the samples were further incubated at room temperature for 15 min. During these incubations, the substrate solution containing 50 mM Hepes (pH 7.4), 2 mM MnCl2, 4 mM E4P, and 4 mM PEP at final concentration was preheated at 37° C. The enzyme reaction was started by adding 6.8 μl of the substrate solution, then incubated at 37° C. for 30 min, and terminated by adding 30 μl of 0.6 M trichloroacetic acid. After a brief centrifugation, 5 μl of 200 mM NaIO4 (sodium meta-periodate) in 9 N H3PO4 was added to oxidize the enzymatic product and to incubate at 25° C. for 20 min. To stop the oxidation reaction, 20 μl of 0.75 M NaAsO2 (sodium arsenite), which was dissolved in 0.5 M Na2SO4 and 0.05 M H2SO4, was added and immediately mixed. […]

[2] = target: T1, DHS2^WT (Arabidopsis thaliana, UniProt Q00218); test: Differential scanning fluorimetry (DSF) protein-ligand affinity analysis, DHS2^WT; format: binding; details: ligand at 1 mM
T1 construct: without the predicted plastid transit peptide (amino acid residues; 49-525, 34-507, and 52-527, respectively); made in house; host or cells: E. coli Rosetta-2
Experimental: To examine the impact of the sota mutations on the interaction between DHS and AAA effectors (FIG. 22), a differential scanning fluorimetry (DSF) analysis (48) was conducted using the recombinant DHS2^WT and DHS2^A4 proteins. […] The fluorescence signal was monitored during the stepwise increase in temperature (1° C. per minute from 25° C. to 95° C.). The Tm was calculated by nonlinear regression analysis using the Boltzmann sigmoidal equation (48).

[3] = target: T1, DHS2^WT; test: DHS enzyme assay, recombinant DHS2^WT; format: biochemical; details: recombinant enzyme; read-out: IC50 of effector molecule on DHS2^WT
Experimental: as §1, with “To generate recombinant DHS proteins the pET28a vectors carrying the A. thaliana DHS1 (AtDHS1), AtDHS2, or AtDHS3 WT sequence without the predicted plastid transit peptide (amino acid residues; 49-525, 34-507, and 52-527, respectively) were expressed in E. coli Rosetta-2 cells and purified using Ni-affinity chromatography, exactly as was conducted previously (9). To” for “To”
The DHS enzyme assays were conducted using the colorimetric method that we recently described (9). Briefly, the enzyme solution (7.7 μl) containing 50 mM Hepes (pH 7.4) was preincubated with an effector molecule(s) at room temperature for 15 min. For assays using recombinant protein and enzyme fractions isolated from plant leaves, 0.01 to 0.1 μg and approximately 50 μg of proteins were used, respectively. After adding 0.5 μl of 0.1 M dithiothreitol, the samples were further incubated at room temperature for 15 min. During these incubations, the substrate solution containing 50 mM Hepes (pH 7.4), 2 mM MnCl2, 4 mM E4P, and 4 mM PEP at final concentration was preheated at 37° C. The enzyme reaction was started by adding 6.8 μl of the substrate solution, then incubated at 37° C. for 30 min, and terminated by adding 30 μl of 0.6 M trichloroacetic acid. After a brief centrifugation, 5 μl of 200 mM NaIO4 (sodium meta-periodate) in 9 N H3PO4 was added to oxidize the enzymatic product and to incubate at 25° C. for 20 min. To stop the oxidation reaction, 20 μl of 0.75 M NaAsO2 (sodium arsenite), which was dissolved in 0.5 M Na2SO4 and 0.05 M H2SO4, was added and immediately mixed. After 5 min of incubation at room temperature, one-third of the sample solution was transferred to a new tube to be mixed with 50 μl of 40 mM thiobarbituric acid and incubated at 99° C. for 15 min in a thermal cycler. The mixture was added to 600 μl of cyclohexanone in eight-strip solvent-resistant plastic tubes, mixed vigorously, and centrifuged at 4500 g for 3 min to separate water- and cyclohexanone-based layers for the extraction off the developed pink chromophore. The absorbance of the pink supernatant was read at 549 nm with the microplate reader (Infinite 200 PRO, TECAN) to calculate DAHP production with the molar extinction coefficient at 549 nm (ε=549 nm) of 4.5×10^4 M^−1 cm^−1. Reaction mixtures with boiled enzymes were run in parallel and used as negative controls to estimate the background signal.

T1 sequence (Q00218 34-507): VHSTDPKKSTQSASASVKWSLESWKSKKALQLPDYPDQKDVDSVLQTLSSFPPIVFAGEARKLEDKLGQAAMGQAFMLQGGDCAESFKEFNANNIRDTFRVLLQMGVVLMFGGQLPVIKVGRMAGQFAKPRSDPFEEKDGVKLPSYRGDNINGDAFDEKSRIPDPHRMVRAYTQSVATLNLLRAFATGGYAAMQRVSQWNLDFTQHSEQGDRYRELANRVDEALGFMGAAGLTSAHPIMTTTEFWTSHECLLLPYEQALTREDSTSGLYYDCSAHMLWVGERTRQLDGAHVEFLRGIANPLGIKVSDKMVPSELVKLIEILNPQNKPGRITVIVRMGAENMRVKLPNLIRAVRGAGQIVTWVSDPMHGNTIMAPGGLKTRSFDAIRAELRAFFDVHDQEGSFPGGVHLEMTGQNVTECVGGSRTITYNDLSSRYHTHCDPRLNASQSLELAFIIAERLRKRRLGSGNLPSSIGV

Compound | IC50 of effector molecule on DHS3^G1 [1] | effect on melting temperature (Tm) of DHS2^WT [2] | IC50 [3] [µM] | IC50 ([1]; read-out: IC50 of effector molecule on DHS3^G1) [µM]
N[C@@H](Cc1c[nH]c2ccccc12)C(=O)O [Trp, tryptophan] | Not inhibited | significantly increased the Tm |  | 
O=C(O)Cc1cc(O)ccc1O [HGA, homogentisate] |  |  | 73.9 | 375
